# In patent publication US9511070B2, “Heterocyclyl carboxamides for treating viral diseases” (NOVADRUG, LLC, priority 2012, dated 2016):
# Test system: JFH-1 HCV
# Settings: relative to mock-treated HCV infected control; doses in μM
# From the text: In vitro assay for anti-HCV efficacy. HCV studies typically involve infected patients and chimpanzees. However, recently, a robust HCV infection system was developed with cells derived from the Huh-7 human hepatoma cell line. It is based on the unique JFH-1 HCV consensus cDNA derived from an HCV patient. Using reverse genetics, the infectious virus can be rescued from this HCV clone. The recovered viable JFH virus can be passaged serially in Huh-7 cells. For this reason, this system is amenable for evaluating the activity of test compound for their anti-HCV efficacy.
# Briefly, 6×10^3 Huh7-1 cells are incubated overnight in each well of collagen-coated BioCoat 96-well plates (BD Biosciences, Bedford, Mass.) in 0.2 ml 10% medium composed of Dulbecco's modified Eagle's medium supplemented with 10% fetal bovine serum. Subsequently, at 2 day intervals, the cultures are replenished with fresh 0.2 ml 10% medium. After the cultures become confluent, they continue to be replenished at 2 day intervals with fresh 0.2 ml 10% medium that also includes 1% dimethyl sulfoxide (DMSO). After 20 days of these replenishments, the Huh7-1 cultures are incubated with fresh 1% medium (same as 10% medium except that the serum level is 1%) containing HCV at a multiplicity of infection (MOI) of 0.05 focus forming units (ffu)/cell. The HCV (JFH-lwt Huh7) stock titer is 1.5×10^5 ffu/mL. The next day (day 1 post-infection) and 2 days later (day 3 post-infection) the media are replenished with fresh 1% medium containing the test compounds dissolved in DMSO. On the 5th day of treatment with the compounds, cell lysates are collected for RNA isolation and Real Time-quantitative Reverse Transcription Polymerase Chain Reaction (RT-qPCR) and culture media are collected for cytotoxicity analysis.
# Total RNA is isolated from cells by the guanidine thiocyanate method using standard protocols. One μg RNA is used for cDNA synthesis using TaqMan reverse transcription reagents (Applied Biosystems, Foster City, Calif.) followed by real-time PCR using an Applied Biosystems 7300 real-time thermocycler. Thermal cycling consists of initial denaturation of 10 min at 95° C. followed by 40 cycles of denaturation (15 s at 95° C.) and annealing/extension (1 m at 60° C.). HCV and human glyceraldehyde-3-phosphate dehydrogenase (GAPDH) RNA levels are determined relative to a standard curve of serial dilutions of plasmid containing JFH-1 HCV or GAPDH cDNA. The PCR primers used to detect GAPDH and HCV are: GAPDH (NMX002046) 5′-[…]-3′(SEQ ID NO: 16) (sense) and 5′-[…]-3′(SEQ ID NO: 17) (anti-sense) JFH-1 HCV (AB047639) 5′-[…]-3′(SEQ ID NO: 18) (sense) and 5′-[…]-3′(SEQ ID NO: 19) (anti-sense).
row,SMILES,"intracellular HCV RNA levels (FIGS. 1A, 1B, 1C)"
1,COc1cccc(-c2ccccc2NC(=O)C2CCN(Cc3cc(C)c(O)c(C)c3)CC2)c1 [Example 24],dose dependent decrease in HCV RNA levels
2,COc1cccc(-c2ccccc2NC(=O)C2CCN(Cc3cccc4cccnc34)CC2)c1 [Example 22],dose dependent decrease in HCV RNA levels

# Same assay, conditions: viral titer at 5 μM or 15 μM compared to untreated control
row,SMILES,HCV Antiviral Activity
1,CCN1CCC(N2CCC(C(=O)Nc3ccc(Oc4ccccc4F)cc3)CC2)CC1 [Example 75],+++ (“+++” corresponds to ≦30% viral titer at 5 μM)
2,O=C(Nc1ccc(-c2nc3ccccc3[nH]2)cc1)C1CCN(Cc2cccc(F)c2)CC1 [Example 96],+ (“+” corresponds to ≦60% viral titer at 15 μM)
3,COc1cc(CN2CCC(C(=O)Nc3cccc(-c4cccc(Cl)c4)c3)CC2)ccc1O [Example 42],+ (“+” corresponds to ≦60% viral titer at 15 μM)
4,O=C(Nc1cccc(-c2cccc(F)c2)c1)C1CCN(Cc2ccc(O)cc2)CC1 [Example 26],++ (“++” corresponds to ≦60% viral titer at 5 μM)
5,C=CCn1cc(CN2CCC(C(=O)Nc3cccc(-c4cccc(Cl)c4)c3)CC2)c(C)n1 [Example 72],+ (“+” corresponds to ≦60% viral titer at 15 μM)
6,COc1cccc(-c2ccccc2NC(=O)C2CCN(Cc3cccc4ccccc34)CC2)c1 [Example 71],+ (“+” corresponds to ≦60% viral titer at 15 μM)
7,COc1cccc(-c2ccccc2NC(=O)C2CCN(CCC(C)c3ccccc3)CC2)c1 (stereo not shown) [Example 36],+ (“+” corresponds to ≦60% viral titer at 15 μM)
8,COc1cccc(-c2cccc(NC(=O)C3CCN(CC=C(C)C)CC3)c2)c1 [Example 69],++ (“++” corresponds to ≦60% viral titer at 5 μM)
9,COc1cccc(-c2ccccc2NC(=O)C2CCN(Cc3ccc(F)cc3OC)CC2)c1 [Example 34],+ (“+” corresponds to ≦60% viral titer at 15 μM)
10,CCCn1ncc(CN2CCC(C(=O)Nc3ccccc3-c3cccc(OC)c3)CC2)c1C [Example 80],+ (“+” corresponds to ≦60% viral titer at 15 μM)
11,CCCn1ncc(CN2CCC(C(=O)Nc3ccc(Oc4ccccc4F)cc3)CC2)c1C [Example 73],+ (“+” corresponds to ≦60% viral titer at 15 μM)
12,COc1cccc(-c2ccccc2NC(=O)C2CCN(Cc3ccc(OC)c(C)c3)CC2)c1 [Example 32],+ (“+” corresponds to ≦60% viral titer at 15 μM)
13,C=CCn1cc(CN2CCC(C(=O)Nc3cccc(-c4cccc(F)c4)c3)CC2)c(C)n1 [Example 93],++ (“++” corresponds to ≦60% viral titer at 5 μM)
14,COc1cccc(CN2CCC(C(=O)Nc3ccccc3-c3cccc(OC)c3)CC2)c1 [Example 33],+ (“+” corresponds to ≦60% viral titer at 15 μM)
15,O=C(Nc1cccc(-c2cccc(Cl)c2)c1)C1CCN(Cc2ccc(O)cc2)CC1 [Example 31],+ (“+” corresponds to ≦60% viral titer at 15 μM)
16,O=C(Nc1ccc(-c2nc3ccccc3[nH]2)cc1)C1CCN(CC2CC=CCC2)CC1 (stereo not shown) [Example 92],+ (“+” corresponds to ≦60% viral titer at 15 μM)
17,COc1cc(CN2CCC(C(=O)Nc3ccc(Oc4ccccc4F)cc3)CC2)ccc1O [Example 85],++ (“++” corresponds to ≦60% viral titer at 5 μM)
18,CSCCCN1CCC(C(=O)Nc2cccc(-c3cc4ccccc4[nH]3)c2)CC1 [Example 46],− (“−” corresponds to >60% viral titer at 15 μM (highest concentration tested))
19,O=C(Nc1cccc(-c2cccc(Cl)c2)c1)C1CCN(Cc2cccc(O)c2)CC1 [Example 50],− (“−” corresponds to >60% viral titer at 15 μM (highest concentration tested))
20,Cc1ccc(CN2CCC(C(=O)Nc3ccc(Oc4ccccc4F)cc3)CC2)o1 [Example 94],+ (“+” corresponds to ≦60% viral titer at 15 μM)
21,COc1cccc(-c2ccccc2NC(=O)C2CCN(Cc3ccccc3OC)CC2)c1 [Example 25],++ (“++” corresponds to ≦60% viral titer at 5 μM)
22,Cc1ccc(CN2CCC(C(=O)Nc3cccc(-c4cc5ccccc5[nH]4)c3)CC2)o1 [Example 45],− (“−” corresponds to >60% viral titer at 15 μM (highest concentration tested))
23,CCn1cc(CN2CCC(C(=O)Nc3ccc(Oc4ccccc4F)cc3)CC2)cn1 [Example 97],++ (“++” corresponds to ≦60% viral titer at 5 μM)
24,Cc1nnc(-c2cccc(NC(=O)C3CCN(C(=O)c4ccco4)CC3)c2)s1 [Example 41],+ (“+” corresponds to ≦60% viral titer at 15 μM)

row,SMILES,HCV Antiviral Activity
1,CC(C)n1cc(CN2CCC(C(=O)Nc3cccc(-c4cccc(Cl)c4)c3)CC2)cn1 [Example 82],+ (“+” corresponds to ≦60% viral titer at 15 μM)
2,COc1cccc(CN2CCC(C(=O)Nc3ccc(Oc4ccccc4F)cc3)CC2)c1 [Example 70],+ (“+” corresponds to ≦60% viral titer at 15 μM)
3,O=C(Nc1cccc(-c2cccc(F)c2)c1)C1CCN(Cc2cccc(O)c2)CC1 [Example 29],+ (“+” corresponds to ≦60% viral titer at 15 μM)
4,O=C(Nc1cccc(-c2ccn[nH]2)c1)C1CCN(Cc2cccc3ccccc23)CC1 [Example 43],− (“−” corresponds to >60% viral titer at 15 μM (highest concentration tested))
5,O=C(Nc1cccc(-c2ccco2)c1)C1CCN(C(=O)c2n[nH]c3c2CCC3)CC1 [Example 54],− (“−” corresponds to >60% viral titer at 15 μM (highest concentration tested))
6,CCOc1ccc(CN2CCC(C(=O)Nc3ccccc3-c3cccc(OC)c3)CC2)cc1 [Example 48],− (“−” corresponds to >60% viral titer at 15 μM (highest concentration tested))
7,CCn1cc(CN2CCC(C(=O)Nc3cccc(-c4cccc(Cl)c4)c3)CC2)cn1 [Example 78],++ (“++” corresponds to ≦60% viral titer at 5 μM)
8,COc1cccc(-c2ccccc2NC(=O)C2CCN(Cc3cccc(OC)c3O)CC2)c1 [Example 62],++ (“++” corresponds to ≦60% viral titer at 5 μM)
9,Cc1nc(C)c(CN2CCC(C(=O)Nc3cccc(-c4cccc(F)c4)c3)CC2)nc1C [Example 79],++ (“++” corresponds to ≦60% viral titer at 5 μM)
10,O=C(Nc1cccc(-c2cscn2)c1)C1CCN(C/C=C/c2ccc(F)cc2)CC1 [Example 52],− (“−” corresponds to >60% viral titer at 15 μM (highest concentration tested))
11,COc1cccc(-c2ccccc2NC(=O)C2CCN(Cc3cc(C)c(O)c(C)c3)CC2)c1 [Example 24],+++ (“+++” corresponds to ≦30% viral titer at 5 μM)
12,COc1ccc(O)c(CN2CCC(C(=O)Nc3ccc(Oc4ccccc4F)cc3)CC2)c1 [Example 81],++ (“++” corresponds to ≦60% viral titer at 5 μM)
13,CC(C)Cc1cc(CN2CCC(C(=O)Nc3ccc(Oc4ccccc4F)cc3)CC2)n[nH]1 [Example 86],+ (“+” corresponds to ≦60% viral titer at 15 μM)
14,COc1cccc(CN2CCC(C(=O)Nc3cccc(-c4cccc(Cl)c4)c3)CC2)c1O [Example 63],++ (“++” corresponds to ≦60% viral titer at 5 μM)
15,COc1ccccc1/C=C/CN1CCC(C(=O)Nc2ccc(-n3nc(C)cc3C)cc2)CC1 [Example 66],+ (“+” corresponds to ≦60% viral titer at 15 μM)
16,O=C(Nc1cccc(-c2cccc(Cl)c2)c1)C1CCN(Cc2ccccn2)CC1 [Example 98],+ (“+” corresponds to ≦60% viral titer at 15 μM)
17,CC(C)n1cc(CN2CCC(C(=O)Nc3cccc(-c4cc5ccccc5[nH]4)c3)CC2)cn1 [Example 38],+ (“+” corresponds to ≦60% viral titer at 15 μM)
18,COc1cccc(-c2ccccc2NC(=O)C2CCN(CC(C)(C)C)CC2)c1 [Example 39],+ (“+” corresponds to ≦60% viral titer at 15 μM)
19,COc1cc(CN2CCC(C(=O)Nc3ccc(-c4cccc(C)c4)cc3)CC2)ccc1O [Example 17],+ (“+” corresponds to ≦60% viral titer at 15 μM)
20,COc1cccc(-c2ccccc2NC(=O)C2CCN(Cc3cccc4cccnc34)CC2)c1 [Example 22],+++ (“+++” corresponds to ≦30% viral titer at 5 μM)
21,COc1ccc(/C=C/CN2CCC(C(=O)Nc3cccc(-c4ccco4)c3)CC2)cc1 [Example 55],− (“−” corresponds to >60% viral titer at 15 μM (highest concentration tested))
22,COc1cccc(-c2ccccc2NC(=O)C2CCN(Cc3nc(C)c(C)nc3C)CC2)c1 [Example 87],++ (“++” corresponds to ≦60% viral titer at 5 μM)
23,CCn1ncc(CN2CCC(C(=O)Nc3cccc(-c4cccc(F)c4)c3)CC2)c1C [Example 95],++ (“++” corresponds to ≦60% viral titer at 5 μM)
